Results: patent publication US20050191359A1, “Water soluble nanoparticles and method for their production” (SoluBest Ltd., priority 2001, published 2005)

Assays:
[1] = rats, same oral dose of 150 mg/kg; cited from earlier work
Micrococcus luteus = experiment: In vitro microbiological activity, agar petri-dish filter-disc test (zones of bacteriostatic activity versus time); format: cell-based; conditions: identical concentrations of drug; observed until 216 hours post-application
Protocol: The microbiological activity of various concentrations of water-soluble complexes of clarithromycin prepared in Example 3 was tested on the bacterium Micrococcus luteus, which is sensitive to macrolide antibiotics, and compared to uncomplexed commercial clarithromycin using well-known agar-filled petri-dish tests. Small filter paper cut discs were impregnated with two different solution concentrations (100 or 1,000 μ/ml) of the tested antibiotics. Diameters of the zones pf bacteriostatic activity were measured versus time. […] It was also observed that the difference in microbiological activity for complexed clarithromycin having concentration differences of an order of magnitude between them is vastly greater than the corresponding differences noted with uncomplexed clarithromycin.

[2] = Solubility of erythromycin alone and as nano-dispersion with modified starch; format: physicochemical

## CC[C@H]1OC(=O)[C@H](C)[C@@H](O[C@H]2C[C@@](C)(OC)[C@@H](O)[C@H](C)O2)[C@H](C)[C@@H](O[C@@H]2O[C@H](C)C[C@H](N(C)C)[C@H]2O)[C@](C)(OC)C[C@@H](C)C(=O)[C@H](C)[C@@H](O)[C@]1(C)O [commercial clarithromycin, clarithromycin]
[1]
  AUC0-24 hours, published data: 32540 ng·h/mL
Micrococcus luteus
  time until which antibacterial activity continued: approximately 48 hours

## CC[C@H]1OC(=O)[C@H](C)[C@@H](O[C@H]2C[C@@](C)(OC)[C@@H](O)[C@H](C)O2)[C@H](C)[C@@H](O[C@@H]2O[C@H](C)C[C@H](N(C)C)[C@H]2O)[C@](C)(O)C[C@@H](C)C(=O)[C@H](C)[C@@H](O)[C@]1(C)O [Erythromycin, erythromycin]
[2]
  solubility of the original drug in water: 0.2%
